The values below come from article PMC8933034, “6-Amino-2,4,5-trimethylpyridin-3-ol and 2-amino-4,6-dimethylpyrimidin-5-ol derivatives as selective fibroblast growth factor receptor 4 inhibitors: design, synthesis, molecular docking, and anti-hepatocellular carcinoma efficacy evaluation” (Journal of Enzyme Inhibition and Medicinal Chemistry, 2022).

One series addresses T1, FGFR1 (Homo sapiens, UniProt P11362).
T1 construct: purchased Promega, WI, USA
Briefly: FGFR1 ADP-glow kinase assay. Type of series: biochemical. How it is done:
(§1) FGFR1 ∼ 3 kinase assays were performed using the adenosine diphosphate (ADP)-glow kinase assay kit of FGFR1, FGFR2, and FGFR3 kinase enzyme systems (Promega, WI, USA) in accordance with the manufacturer’s instructions. […] The reaction was carried out at 25 °C for 1 h in a total volume of 25 µL. Subsequently, 25 µL of ADP-Glow reagent was added to the mixture, and then incubated for 40 min at 25 °C. After the addition of 50 µL of ADP detection reagents for 30 min at 25 °C, luminescence was measured using a Fluostar Omega microplate reader (BMG LABTECH GmbH, Ortenberg, Germany).

Another series addresses T2, human FGFR4 kinase (Homo sapiens, UniProt P22455).
T2 construct: purchased Reaction Biology Corporation (Malvern, PA, USA), contract assay service
Briefly: FGFR4 kinase assay (Kinase HotSpot, Reaction Biology Corp.). Type of series: biochemical. How it is done: A FGFR4 kinase assay was performed at the Reaction Biology Corporation (Malvern, PA, USA) using a Kinase HotSpotSM assay platform (www.reactionbiology.com, last accessed at 19/10/2020). Briefly, human FGFR4 kinase (5–10 mU), peptide substrate, and poly[Glu:Tyr] (4:1) 0.2 mg/ml were prepared in a reaction buffer with a final volume of 25 µL. The compounds were delivered into the reaction, followed ∼20 min. later by the addition of a mixture of ATP and [γ-^33P-ATP] (specific activity approx. 500 cpm/pmol, concentration as required) to a final concentration of 10 µM. After incubation for 40 min. at 25 °C, the reaction was stopped by the addition of a 3% phosphoric acid solution. Then, the reaction was spotted onto a P30 filtermat, and unbound phosphate was removed by washing 3 times for 5 min in 75 mM phosphoric acid and once in methanol prior to drying and scintillation counting. […] IC50 values and curve fits were obtained using GraphPad Prism 5 software.

Series [1] in a line: Cytotoxicity assay (MTT), H6c7. Type of series: cell-based. As to conditions: human, H6c7 normal pancreatic duct epithelial cells, 48 h treatment, mean ± SEM of three independent experiments, read-out: IC50 on cell viability (cytotoxicity), H6c7. As to the method: (§2) Human HCC cell lines, Hep3B and Huh7 were obtained from American Type Culture Collection (ATCC, Manassas, VA, USA). An H6c7 human normal pancreatic duct epithelial cell line was purchased from Kerafast (Boston, MA, USA). Hep3B and Huh7 cells were cultured in Dulbecco′s Modified Eagle′s Medium (DMEM) (Hyclone, Logan, UT, USA). The media were supplemented with 10% foetal bovine serum (FBS) (Gibco/ThermoFisher Scientific) and 1% penicillin/streptomycin (Gibco/ThermoFisher Scientific). H6c7 cells were maintained in a keratinocyte serum-free medium supplemented with a recombinant […] growth factor (rEGF) and bovine pituitary extract (Gibco/ThermoFisher Scientific). All the cells were incubated at 37 °C under a 5% CO2 atmosphere.
The cytotoxicity of the compounds was assessed by measuring the cell viability decrease using the MTT staining method. Briefly, H6c7 cells were seeded in a 96-well plate (Falcon, USA) at a density of 4 × 10^4 cells per well in keratinocyte serum-free medium. After 24 h, Cells were incubated with different concentrations (0.1, 1, 3, 10, 30, and 100) µM of each compound for 48 h, and the cell viability was measured using MTT assay. Optical density was measured at 540 nm using a microplate reader (BMG LABTECH).

For series [2], the system named is Hep3B-xenografted CAM tumour model. Briefly: CAM (chick chorioallantoic membrane) tumour model implanted with Hep3B cells. The format is in vivo. As to the method:
Fertile chicken eggs were purchased from Byeolbichon Farm (Gyeongbuk, South Korea) and incubated at 37 °C and under 55% relative humidity. On the 9th day of egg incubation (post-fertilization), false air sac was generated on the relatively flat side of eggs by a negative pressure technique. A small window (1 cm^2) was created on the false air sac surface of the eggs by separating the shell and membrane beneath (technique) using a grinding wheel (Dremel, Racine, WI, USA). Next, Hep3B cells were loaded at a density of 1.5 × 10^6 cells/CAM with or without compound. After four days of drug treatment, the tumour weight, number of vessel branch points within the tumour region were analysed.

In another series the target is T3, FGFR2 (Homo sapiens, UniProt P21802).
T3 construct: purchased Promega, WI, USA
Kind of series: FGFR2 ADP-glow kinase assay. The format is biochemical. As to the method: as §1

A further series deals with Hep3B cells. Briefly: Cell proliferation assay (MTT), Hep3B. Type of series: cell-based, human. As to the method: as §2
(§3) Cells were seeded at a density of 5000 cells/well in a 96-well plate. After overnight incubation, the cells were serum-starved using 1% FBS for 24 h. The next day, the cells were pre-treated with the different concentrations (0.1, 1, 3, 10, 30, 100 µM) of drugs for 1 h prior to the treatment with serum (10% FBS). After 48 h of incubation, 3–(4,5-dimethylthiazol-2-yl)-2,5-diphenyltetrazolium bromide (MTT) dye solution was added and incubated for 4 h. Next, DMSO was added, and after 30 min, the colour intensities were measured using a microplate reader (Versamax, Molecular Devices, Inc., USA) at 490 nm.

Another series has as its target T4, FGFR3 (Homo sapiens, UniProt P22607).
T4 construct: purchased Promega, WI, USA
Kind of series: FGFR3 ADP-glow kinase assay. The format is biochemical. As to the method:
as §1

Another series relates to Huh7 cells. Briefly: Cell proliferation assay (MTT), Huh7. Type of series: cell-based, human. As to the method: as §2, §3
Where [3] appears, read: four days after Hep3B xenograft on CAM.
[4] abbreviates: number of new vessel branches on CAM, four days.

T3 sequence (P21802 22-821): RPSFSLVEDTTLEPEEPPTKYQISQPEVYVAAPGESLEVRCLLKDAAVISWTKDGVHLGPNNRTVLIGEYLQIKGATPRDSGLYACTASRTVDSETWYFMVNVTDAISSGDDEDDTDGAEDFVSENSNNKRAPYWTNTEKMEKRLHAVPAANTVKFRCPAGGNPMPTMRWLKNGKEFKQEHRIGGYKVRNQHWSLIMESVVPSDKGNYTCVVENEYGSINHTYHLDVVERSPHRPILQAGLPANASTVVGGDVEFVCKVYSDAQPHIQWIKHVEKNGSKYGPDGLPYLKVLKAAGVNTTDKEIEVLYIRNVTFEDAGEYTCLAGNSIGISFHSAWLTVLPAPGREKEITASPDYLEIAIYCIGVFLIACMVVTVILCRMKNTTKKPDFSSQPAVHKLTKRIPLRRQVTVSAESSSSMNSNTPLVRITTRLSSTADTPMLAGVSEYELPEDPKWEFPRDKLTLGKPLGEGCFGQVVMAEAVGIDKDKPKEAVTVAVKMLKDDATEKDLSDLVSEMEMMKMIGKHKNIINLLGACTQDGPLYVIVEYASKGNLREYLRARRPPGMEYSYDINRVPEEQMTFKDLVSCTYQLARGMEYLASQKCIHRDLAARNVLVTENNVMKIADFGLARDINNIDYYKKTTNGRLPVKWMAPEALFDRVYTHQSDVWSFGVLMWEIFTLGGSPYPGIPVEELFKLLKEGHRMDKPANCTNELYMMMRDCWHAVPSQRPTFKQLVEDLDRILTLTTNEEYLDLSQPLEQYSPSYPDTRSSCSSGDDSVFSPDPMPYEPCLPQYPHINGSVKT
T2 sequence (P22455 22-802): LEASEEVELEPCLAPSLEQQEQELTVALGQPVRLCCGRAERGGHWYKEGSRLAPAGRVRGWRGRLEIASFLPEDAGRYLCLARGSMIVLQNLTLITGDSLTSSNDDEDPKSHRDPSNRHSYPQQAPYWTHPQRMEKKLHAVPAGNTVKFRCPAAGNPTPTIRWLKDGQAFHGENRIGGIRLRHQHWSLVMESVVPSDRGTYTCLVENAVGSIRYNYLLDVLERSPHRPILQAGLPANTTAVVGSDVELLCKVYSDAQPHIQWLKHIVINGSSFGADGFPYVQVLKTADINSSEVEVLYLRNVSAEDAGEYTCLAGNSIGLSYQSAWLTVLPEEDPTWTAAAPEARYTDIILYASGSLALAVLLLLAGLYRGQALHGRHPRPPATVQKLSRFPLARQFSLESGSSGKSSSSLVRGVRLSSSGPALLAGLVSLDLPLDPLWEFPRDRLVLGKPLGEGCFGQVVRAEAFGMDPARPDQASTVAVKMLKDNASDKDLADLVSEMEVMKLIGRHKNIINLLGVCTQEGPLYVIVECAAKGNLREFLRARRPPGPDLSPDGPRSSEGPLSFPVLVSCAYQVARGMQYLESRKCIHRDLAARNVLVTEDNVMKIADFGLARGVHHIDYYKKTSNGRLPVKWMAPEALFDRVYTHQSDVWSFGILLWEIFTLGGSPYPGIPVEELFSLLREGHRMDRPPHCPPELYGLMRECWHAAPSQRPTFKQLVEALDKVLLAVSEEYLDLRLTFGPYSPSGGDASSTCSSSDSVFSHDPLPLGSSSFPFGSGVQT
T1 sequence (P11362 22-822): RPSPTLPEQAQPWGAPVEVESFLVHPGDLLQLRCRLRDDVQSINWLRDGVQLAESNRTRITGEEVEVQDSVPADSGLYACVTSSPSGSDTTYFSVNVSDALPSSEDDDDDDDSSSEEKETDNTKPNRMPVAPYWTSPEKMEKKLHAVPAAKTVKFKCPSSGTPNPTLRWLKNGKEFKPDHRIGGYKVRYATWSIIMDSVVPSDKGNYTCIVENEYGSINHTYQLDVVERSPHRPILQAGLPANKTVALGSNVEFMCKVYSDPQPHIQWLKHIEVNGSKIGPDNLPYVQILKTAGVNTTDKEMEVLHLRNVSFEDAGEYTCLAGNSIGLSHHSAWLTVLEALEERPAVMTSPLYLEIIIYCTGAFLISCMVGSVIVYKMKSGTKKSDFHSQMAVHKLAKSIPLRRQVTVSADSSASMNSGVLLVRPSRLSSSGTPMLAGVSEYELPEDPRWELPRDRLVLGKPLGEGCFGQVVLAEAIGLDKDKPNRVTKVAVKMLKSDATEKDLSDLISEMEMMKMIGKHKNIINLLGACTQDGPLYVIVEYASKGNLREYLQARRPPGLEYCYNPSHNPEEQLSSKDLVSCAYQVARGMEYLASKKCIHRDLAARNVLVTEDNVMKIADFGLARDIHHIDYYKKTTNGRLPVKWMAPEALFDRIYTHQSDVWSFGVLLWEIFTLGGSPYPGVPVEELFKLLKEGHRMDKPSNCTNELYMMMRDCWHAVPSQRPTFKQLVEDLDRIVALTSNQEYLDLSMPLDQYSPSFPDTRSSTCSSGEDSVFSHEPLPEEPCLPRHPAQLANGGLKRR
T4 sequence (P22607 23-806): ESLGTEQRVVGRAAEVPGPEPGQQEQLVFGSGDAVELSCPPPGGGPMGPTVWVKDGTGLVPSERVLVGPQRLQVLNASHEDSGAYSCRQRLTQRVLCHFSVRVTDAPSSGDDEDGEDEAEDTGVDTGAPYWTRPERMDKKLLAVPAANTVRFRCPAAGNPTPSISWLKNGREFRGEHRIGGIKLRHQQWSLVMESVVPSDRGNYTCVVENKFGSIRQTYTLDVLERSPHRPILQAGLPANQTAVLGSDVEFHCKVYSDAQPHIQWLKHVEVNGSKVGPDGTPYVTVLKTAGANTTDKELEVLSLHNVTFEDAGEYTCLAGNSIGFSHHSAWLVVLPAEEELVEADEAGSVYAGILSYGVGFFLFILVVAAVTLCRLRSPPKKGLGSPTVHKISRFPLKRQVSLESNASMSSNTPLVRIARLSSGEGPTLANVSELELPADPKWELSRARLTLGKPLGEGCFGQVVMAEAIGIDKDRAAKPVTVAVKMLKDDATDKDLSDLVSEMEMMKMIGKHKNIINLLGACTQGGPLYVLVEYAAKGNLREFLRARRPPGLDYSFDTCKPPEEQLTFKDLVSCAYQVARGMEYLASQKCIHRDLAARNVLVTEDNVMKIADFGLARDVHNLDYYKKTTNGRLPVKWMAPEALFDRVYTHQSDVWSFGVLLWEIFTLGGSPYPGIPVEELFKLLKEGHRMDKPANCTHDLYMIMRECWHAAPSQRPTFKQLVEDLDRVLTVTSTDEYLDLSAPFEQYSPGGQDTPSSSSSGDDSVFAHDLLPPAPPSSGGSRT

Turning to `C=CC(=O)Nc1cc(F)cc(Cl)c1Nc1nc(C)c(OCc2c(F)c(OC)cc(OC)c2F)c(C)n1` [Compound 6O, N-(3-Chloro-2-((5-((2,6-difluoro-3,5-dimethoxybenzyl)oxy)-4,6-dimethylpyrimidin-2-yl)amino)-5-fluorophenyl)acrylamide], the “Ratio against FGFR4 (FGFR1)” value on FGFR1 (ratio of FGFR1 to FGFR4 inhibitory activity) is more than 663.8. For the same compound, the IC50 is more than 50 µM against FGFR1 (three independent experiments); 0.0753 µM against human FGFR4 kinase (7 different concentrations, three independent experiments); 35.5 µM against FGFR2 (three independent experiments); 4.5 µM with Hep3B cells (Homo sapiens, Hep3B, 48 h treatment, mean ± SEM of three independent experiments); more than 30 µM against FGFR3 (three independent experiments); 12.6 ± 1.3 µM in the series on Huh7 cells (Homo sapiens, Huh-7, 48 h treatment, mean ± SEM of three independent experiments). On human FGFR4 kinase (fixed concentration 1 μM, mean of two independent experiments), this compound came in with an inhibition at 1 µM of 96.7%. On human FGFR4 kinase (from Table 1 ratios), the “FGFR4 selectivity compared to BLU9931 (1)” value is given as “at least 8 times”. Also, the IC50 at 48 h in series [1] came out at 18 µM. Moreover, in series [2] (setting [3]), the “inhibitory effect on the tumour weight compared with compound 1” value was “slightly weaker”. In addition, the tumour growth result in series [2] (setting [3]) is recorded as “dose-dependently inhibited”. Also, the “antiangiogenic effect compared with compound 1” value in series [2] (setting [4]) was “slightly weaker”. For the same compound, the tumour-induced angiogenesis entry in series [2] (setting [4]) is reported as “significantly blocked”. At FGFR2 (ratio of FGFR2 to FGFR4 inhibitory activity), the “Ratio against FGFR4 (FGFR2)” value is given as 471.1. Besides, the “fold less potent than compound 1, Hep3B IC50” value in the series with Hep3B cells (48 h) is on record as 5 fold. In addition, the “Ratio against FGFR4 (FGFR3)” value on FGFR3 (ratio of FGFR3 to FGFR4 inhibitory activity) is listed as more than 398.3. The “difference of anti-proliferative activity between Hep3B and Huh7” value in the series on Huh7 cells (Huh7 versus Hep3B, 48 h) was determined as 2.8 fold.
